Drawing on patent publication US20240409585A1, “MACROCYCLIC IMMUNOMODULATORS” (priority 2021, published 2024), this text covers IC50 for 15 compounds.

SMILES strings stand for the structures. Bridge positions count the residues as written; N and C are the ends. Square brackets hold non-standard residues; d marks the D form. Peptide text beside a SMILES is read from it. * marks the point of attachment. ξ: configuration not given here. dPhe(4-NO2) = N[C@H](Cc1ccc([N+](=O)[O-])cc1)C(=O)O; Phe(4-COOH) = N[C@@H](Cc1ccc(C(=O)O)cc1)C(=O)O; Ala(4-thiazolyl) = N[C@@H](Cc1cscn1)C(=O)O; Bip = N[C@@H](Cc1ccc(-c2ccccc2)cc1)C(=O)O; dPhe(4-NH2) = Nc1ccc(C[C@@H](N)C(=O)O)cc1; Phe(3-CN) = N#Cc1cccc(C[C@H](N)C(=O)O)c1; Phe(3-Me) = Cc1cccc(C[C@H](N)C(=O)O)c1; Phe(2-Me) = Cc1ccccc1C[C@H](N)C(=O)O; Val(3-OH) = CC(C)(O)[C@H](N)C(=O)O; h4Pal = N[C@@H](CCc1ccncc1)C(=O)O; aIle = CC[C@@H](C)[C@H](N)C(=O)O; 4Pal = N[C@@H](Cc1ccncc1)C(=O)O; Cha = N[C@@H](CC1CCCCC1)C(=O)O; Cit = NC(=O)NCCC[C@H](N)C(=O)O; Ile(3ξ) = CCC(C)[C@H](N)C(=O)O; NMeL = CN[C@@H](CC(C)C)C(=O)O; Thr(3ξ) = CC(O)[C@H](N)C(=O)O; Ala(CN) = N#CC[C@H](N)C(=O)O; Carboxymethyl = O=C(O)C*; NMeA = CN[C@@H](C)C(=O)O; Orn = NCCC[C@H](N)C(=O)O; Dab = NCC[C@H](N)C(=O)O; Dap = NC[C@H](N)C(=O)O; ξV = CC(C)C(N)C(=O)O; ξC = NC(CS)C(=O)O

The target of this experiment is T1, PE-labeled human PD-L1-Ig binding to Jurkat cell line over-expressing human PD-1 (Jurkat-PD-1) (Homo sapiens, UniProt Q15116).
T1 construct: expressed in transfected cells; host or cells: Jurkat
T1 sequence (Q15116 25-288): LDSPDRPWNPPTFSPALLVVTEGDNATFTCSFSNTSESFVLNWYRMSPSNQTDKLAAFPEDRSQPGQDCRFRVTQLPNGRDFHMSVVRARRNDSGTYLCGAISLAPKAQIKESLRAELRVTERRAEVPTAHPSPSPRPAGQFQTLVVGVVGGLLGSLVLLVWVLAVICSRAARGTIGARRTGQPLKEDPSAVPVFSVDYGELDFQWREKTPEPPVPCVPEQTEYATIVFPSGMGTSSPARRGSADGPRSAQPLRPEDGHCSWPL
Briefly: Jurkat-PD-1 Cell Binding High-Content Screening Assay (CBA): Method 1. The conditions noted are these: Jurkat-hPD-1 cells, PE-labeled PD-L1-Ig 20 nM final; read-out: Jurkat HPDL1 PD1 IC50 (uM) (Method 1).

Consider `CC[C@H](C)[C@@H]1NC(=O)[C@H](Cc2ccc(-c3ccccc3)cc2)NC(=O)[C@H](C(C)C)NC(=O)[C@H](Cc2c[nH]c3ccccc23)NC(=O)[C@H](CC(=O)O)NC(=O)[C@H](Cc2ccncc2)NC(=O)[C@H](CN)NC(=O)CSC[C@@H](C(=O)N[C@@H](C)C(N)=O)NC(=O)[C@H]([C@@H](C)O)NC(=O)[C@H](C(C)C)NC(=O)[C@H](CC(C)C)NC(=O)[C@H](CCN)NC(=O)[C@@H](CC(C)C)NC(=O)[C@H](C)N(C)C1=O` [Compound 1405] ({CH2CO}-[Dap][4Pal]DWV[Bip]I[NMeA][dL][Dab]LVTCA-NH2; thioether N-14), for which the IC50 – broadly, the concentration at which inhibition is half-maximal – stood at 0.03 µM. With `CC(C)C[C@H]1NC(=O)[C@H](C)N(C)C(=O)[C@H](CCCNC(=N)N)NC(=O)[C@H](Cc2ccc(-c3ccccc3)cc2)NC(=O)[C@H](C(C)C)NC(=O)[C@H](Cc2c[nH]c3ccccc23)NC(=O)[C@H](CC(=O)O)NC(=O)[C@H](Cc2ccc(O)cc2)NC(=O)[C@H](Cc2ccccc2)NC(=O)CSC[C@@H](C(=O)N[C@@H](C)C(N)=O)NC(=O)[C@H]([C@@H](C)O)NC(=O)[C@H](C(C)C)NC(=O)[C@H](CC(C)C)N(C)C(=O)[C@H](CCCNC(=N)N)NC1=O` [Compound 1117] ({CH2CO}-FYDWV[Bip]R[NMeA][dL]R[NMeL]VTCA-NH2; thioether N-14), the IC50 turned out to be 0.36 µM. Consider `Cc1ccccc1C[C@@H]1NC(=O)[C@H](Cc2ccccc2)NC(=O)CSC[C@@H](C(=O)N[C@@H](C)C(N)=O)NC(=O)[C@H](CO)NC(=O)[C@H](C(C)C)NC(=O)[C@H](CC(C)C)NC(=O)[C@H](CC(N)=O)NC(=O)[C@@H](C)NC(=O)[C@H](C)N(C)C(=O)[C@H](C(C)C)NC(=O)[C@H](Cc2ccc(-c3ccccc3)cc2)NC(=O)[C@H](CC(C)C)NC(=O)[C@H](Cc2c[nH]c3ccccc23)NC(=O)[C@H](CC(=O)O)NC1=O` [Compound 1794] ({CH2CO}-F[Phe(2-Me)]DWL[Bip]V[NMeA][dA]NLVSCA-NH2; thioether N-14), for which the IC50 amounted to 0.15 µM. Regarding `CC(C)C[C@@H]1NC(=O)[C@H](Cc2c[nH]c3ccccc23)NC(=O)[C@H](CC(=O)O)NC(=O)[C@H](Cc2cccc(C#N)c2)NC(=O)[C@H](Cc2ccccc2)NC(=O)CSC[C@@H](C(=O)N[C@@H](C)C(N)=O)NC(=O)[C@H](CO)NC(=O)[C@H](C(C)C)NC(=O)[C@H](CC(C)C)NC(=O)[C@H](CC(N)=O)NC(=O)[C@@H](C)NC(=O)[C@H](C)N(C)C(=O)[C@H](C(C)C)NC(=O)[C@H](Cc2ccc(-c3ccccc3)cc2)NC1=O` [Compound 1723] ({CH2CO}-F[Phe(3-CN)]DWL[Bip]V[NMeA][dA]NLVSCA-NH2; thioether N-14), the IC50 came out at 0.01 µM. For the compound `Cc1cccc(C[C@@H]2NC(=O)[C@H](CC(=O)O)NC(=O)[C@H](Cc3ccncc3)NC(=O)[C@H](Cc3ccc(OCC(=O)O)cc3)NC(=O)CSC[C@@H](C(N)=O)NC(=O)[C@H](CO)NC(=O)[C@H](C(C)C)NC(=O)[C@H](CC(C)C)NC(=O)[C@H](CC(N)=O)NC(=O)[C@@H](CC(C)C)NC(=O)[C@H](C)N(C)C(=O)[C@H](CCCNC(N)=O)NC(=O)[C@H](Cc3ccc(-c4ccccc4)cc3)NC(=O)[C@H](CC(C)C)NC2=O)c1` [Compound 1642] ({CH2CO}-Y(Carboxymethyl)[4Pal]D[Phe(3-Me)]L[Bip][Cit][NMeA][dL]NLVSC-NH2; thioether N-14), the IC50 was determined as 0.18 µM. For the compound `CC(C)C[C@@H]1NC(=O)[C@H](CCCNC(=N)N)NC(=O)[C@@H](Cc2ccc(N)cc2)NC(=O)[C@H](C)N(C)C(=O)[C@H](CCCNC(=N)N)NC(=O)[C@H](Cc2ccc(-c3ccccc3)cc2)NC(=O)[C@H](C(C)C)NC(=O)[C@H](Cc2c[nH]c3ccccc23)NC(=O)[C@H](CC(=O)O)NC(=O)[C@H](Cc2ccc(O)cc2)NC(=O)[C@H](Cc2ccccc2)NC(=O)CSC[C@@H](C(=O)N[C@@H](C)C(N)=O)NC(=O)[C@H]([C@@H](C)O)NC(=O)[C@H](C(C)C)NC1=O` [Compound 1087] ({CH2CO}-FYDWV[Bip]R[NMeA][dPhe(4-NH2)]RLVTCA-NH2; thioether N-14), the IC50 amounted to 0.33 µM. Take `CC(C)C[C@@H]1NC(=O)[C@H](Cc2c[nH]c3ccccc23)NC(=O)[C@H](CC(=O)O)NC(=O)[C@H](Cc2ccc(C(=O)O)cc2)NC(=O)[C@H](Cc2ccc(OCC(=O)O)cc2)NC(=O)CSC[C@@H](C(N)=O)NC(=O)[C@H](CO)NC(=O)[C@H](C(C)C)NC(=O)[C@H](CC2CCCCC2)NC(=O)[C@H](Cc2cnc[nH]2)NC(=O)[C@@H](CC(C)C)NC(=O)[C@H](C)N(C)C(=O)[C@H](C(C)C)NC(=O)[C@H](Cc2ccc(-c3ccccc3)cc2)NC1=O` [Compound 2252] ({CH2CO}-Y(Carboxymethyl)[Phe(4-COOH)]DWL[Bip]V[NMeA][dL]H[Cha]VSC-NH2; thioether N-14): the IC50 was found to be 0.08 µM.

Take `CC(C)C[C@@H]1NC(=O)[C@H](Cc2c[nH]c3ccccc23)NC(=O)[C@H](CC(=O)O)NC(=O)[C@H](Cc2ccc(OCC(=O)O)cc2)NC(=O)[C@H](CCc2ccncc2)NC(=O)CSC[C@@H](C(=O)N[C@@H](CC(N)=O)C(N)=O)NC(=O)[C@H](Cc2cnc[nH]2)NC(=O)[C@H](C(C)C)NC(=O)[C@H](CC(C)C)NC(=O)[C@H](CCN)NC(=O)[C@@H](CC(C)C)NC(=O)[C@H](C)N(C)C(=O)[C@H](C(C)C)NC(=O)[C@H](Cc2ccc(-c3ccccc3)cc2)NC1=O` [Compound 2099] ({CH2CO}-[h4Pal]Y(Carboxymethyl)DWL[Bip]V[NMeA][dL][Dab]LVHCN-NH2; thioether N-14): the 50% inhibitory concentration (IC50) was 0.02 µM. As for `Cc1cccc(C[C@@H]2NC(=O)[C@H](CC(=O)O)NC(=O)[C@H](Cc3ccc(O)cc3)NC(=O)[C@H](CC(N)=O)NC(=O)CSC[C@@H](C(N)=O)NC(=O)[C@H]([C@@H](C)O)NC(=O)[C@H](C(C)C)NC(=O)[C@H](CC(C)C)NC(=O)[C@H](CCN)NC(=O)[C@@H](CC(C)C)NC(=O)[C@H](C)N(C)C(=O)[C@H](C(C)C)NC(=O)[C@H](Cc3ccc(-c4ccccc4)cc3)NC(=O)[C@H](C(C)C)NC2=O)c1` [Compound 1637] ({CH2CO}-NYD[Phe(3-Me)]V[Bip]V[NMeA][dL][Dab]LVTC-NH2; thioether N-14), the figure is 0.15 µM. Regarding `CCC(C)[C@@H]1NC(=O)[C@H](Cc2ccc(-c3ccccc3)cc2)NC(=O)[C@H](C(C)C)NC(=O)[C@H](Cc2c[nH]c3ccccc23)NC(=O)[C@H](CC(=O)O)NC(=O)[C@H](Cc2ccc(O)cc2)NC(=O)[C@H](CC#N)NC(=O)CSCC(C(=O)NCC(=O)O)NC(=O)[C@H](C(C)O)NC(=O)[C@H](C(C)C)NC(=O)[C@H](CC2CCCCC2)NC(=O)[C@H](CCN)NC(=O)[C@@H](CC(C)C)NC(=O)[C@H](C)N(C)C1=O` (stereo partly drawn) [Compound 2218] ({CH2CO}-[Ala(CN)]YDWV[Bip][Ile(3ξ)][NMeA][dL][Dab][Cha]V[Thr(3ξ)][ξC]G-OH; thioether N-14), the half-inhibitory concentration (IC50) came to 0.01 µM. Take `Cc1cccc(C[C@@H]2NC(=O)[C@H](CC(=O)O)NC(=O)[C@H](Cc3ccc(O)cc3)NC(=O)[C@H](CC(N)=O)NC(=O)CSC[C@@H](C(=O)N[C@@H](CCN)C(N)=O)NC(=O)[C@H](CCC(=O)O)NC(=O)[C@H](C(C)C)NC(=O)[C@H](CC3CCCCC3)NC(=O)[C@H](CCN)NC(=O)[C@@H](CC(C)C)NC(=O)[C@H](C)N(C)C(=O)[C@H](CCCNC(N)=O)NC(=O)[C@H](Cc3ccc(-c4ccccc4)cc3)NC(=O)[C@H](C(C)(C)O)NC2=O)c1` [Compound 1709] ({CH2CO}-NYD[Phe(3-Me)][Val(3-OH)][Bip][Cit][NMeA][dL][Dab][Cha]VEC[Dab]-NH2; thioether N-14): the IC50 turned out to be 0.03 µM. For `CC(C)C[C@@H]1NC(=O)[C@H](CCCNC(=N)N)NC(=O)[C@@H](Cc2ccc([N+](=O)[O-])cc2)NC(=O)[C@H](C)N(C)C(=O)[C@H](CCCNC(=N)N)NC(=O)[C@H](Cc2ccc(-c3ccccc3)cc2)NC(=O)[C@H](C(C)C)NC(=O)[C@H](Cc2c[nH]c3ccccc23)NC(=O)[C@H](CC(=O)O)NC(=O)[C@H](Cc2ccc(O)cc2)NC(=O)[C@H](Cc2ccccc2)NC(=O)CSC[C@@H](C(=O)N[C@@H](C)C(N)=O)NC(=O)[C@H]([C@@H](C)O)NC(=O)[C@H](C(C)C)NC1=O` [Compound 1102] ({CH2CO}-FYDWV[Bip]R[NMeA][dPhe(4-NO2)]RLVTCA-NH2; thioether N-14), the IC50 stood at 0.3 µM. As for `CC(C)C[C@@H]1NC(=O)[C@H](CCCNC(=N)N)NC(=O)[C@@H](CC(C)C)NC(=O)[C@H](C)N(C)C(=O)[C@H](CCCNC(=N)N)NC(=O)[C@H](Cc2ccc(-c3ccccc3)cc2)NC(=O)[C@H](C(C)C)NC(=O)[C@H](Cc2c[nH]c3ccccc23)NC(=O)[C@H](CC(=O)O)NC(=O)[C@H](Cc2ccc(O)cc2)NC(=O)[C@H](CC(N)=O)NC(=O)CSC[C@@H](C(=O)NCC(N)=O)NC(=O)[C@H]([C@@H](C)O)NC(=O)[C@H](C(C)C)NC1=O` [Compound 1244] ({CH2CO}-NYDWV[Bip]R[NMeA][dL]RLVTCG-NH2; thioether N-14), the figure is 0.04 µM; as for `CC[C@@H](C)[C@@H]1NC(=O)[C@H](Cc2ccc(-c3ccccc3)cc2)NC(=O)[C@H](CC(C)C)NC(=O)[C@H](Cc2c[nH]c3ccccc23)NC(=O)[C@H](CC(=O)O)NC(=O)[C@H](Cc2ccc(C(=O)O)cc2)NC(=O)[C@H](Cc2ccc(OCC(=O)O)cc2)NC(=O)CSC[C@@H](C(=O)N[C@@H](CCCCN)C(N)=O)NC(=O)[C@H](Cc2cscn2)NC(=O)C(C(C)C)NC(=O)[C@H](CC(C)C)NC(=O)[C@H](CC(N)=O)NC(=O)[C@@H](CC(C)C)NC(=O)[C@H](C)N(C)C1=O` (stereo partly drawn) [Compound 2107] ({CH2CO}-Y(Carboxymethyl)[Phe(4-COOH)]DWL[Bip][aIle][NMeA][dL]NL[ξV][Ala(4-thiazolyl)]CK-NH2; thioether N-14), 0.24 µM; as for `CC(C)C[C@@H]1NC(=O)[C@H](CCCN)NC(=O)[C@@H](CC(C)C)NC(=O)[C@H](C)N(C)C(=O)[C@H](CCCNC(=N)N)NC(=O)[C@H](Cc2ccc(-c3ccccc3)cc2)NC(=O)[C@H](C(C)C)NC(=O)[C@H](Cc2c[nH]c3ccccc23)NC(=O)[C@H](CC(=O)O)NC(=O)[C@H](Cc2ccc(O)cc2)NC(=O)[C@H](CC(N)=O)NC(=O)CSC[C@@H](C(=O)N[C@@H](CCC(=O)O)C(N)=O)NC(=O)[C@H]([C@@H](C)O)NC(=O)[C@H](C(C)C)NC1=O` [Compound 1165] ({CH2CO}-NYDWV[Bip]R[NMeA][dL][Orn]LVTCE-NH2; thioether N-14), 0.15 µM.
